# What was measured:
# [1] = Aqueous solubility, 24 h shake, gravimetric; type: physicochemical; conditions: thermodynamic from solid, deionized water
# Protocol: Ca. 50 mg of each of the salts were weighed into a 2 mL HPLC vial prior to the addition of 1 mL of deionized water. […] The experiment was also repeated at 50° C.
# FaSSIF/FeSSIF solubility = type: physicochemical; conditions: thermodynamic from solid, shaken 24 h at 37° C.
# Protocol: Ca. 25 mg of each of the salts were weighed into a 2 mL HPLC vial prior to the addition of 1 mL of Fasting State Simulated Intenstinal Fluid (FaSSIS) solution. […] The experiment was also repeated using Fed State Simulated Intestinal Fluid (FeSSIF) solution.
# pH1 stability = type: physicochemical; conditions: pH 1 buffer, 4 h at 37° C.
# Protocol: Ca. 25 mg of each of the salts were weighed into a 2 mL HPLC vial prior to the addition of 1 mL of pH 1 buffer. The samples were then shaken for 4 h at 37° C. before being filtered into SPE cartridges and dried overnight.
# [2] = Aqueous solubility assessment of salt screen solids (visual); conditions: Ca. 5 mg in up to 4000 μL water (1.25 mg/ml), shaken overnight at 50° C.
# Protocol: Aqueous solubility assessment was performed using Ca. […] These samples were added to aliquots of deionized water up to a maximum of 4000 μL with the samples being shaken between additions to encourage dissolution prior to a visual inspection.
# [3] = Stability at 40° C./75% RH; type: physicochemical
# [4] = Dynamic vapor sorption (DVS); type: physicochemical
# Protocol: SMS DVS Intrinsic dynamic vapour sorption instrument using DVS-Intrinsic control software v1.0.6.0. Analysis of the data was performed using the DVS analysis suite v7.0.13.1 macro program embedded in Microsoft Excel. Analysis was performed as a wt % change from 0-90% RH with isothermal plots also being examined.
# Ca. 10-15 mg of sample was weighed into a stainless steel DVS basket before submitting for analysis. The samples were analysed over the range of 0-90% RH with a maximum time of 6 hours per humidity stage. Each sample was exposed to a double cycle. XRPD analysis of all samples was performed post-DVS.
# pH of saturated solution = type: physicochemical; conditions: saturated solution in deionized water, room temperature
# Protocol: A saturated solution of each of the salts was prepared in 5 mL of deionized water at room temperature prior to analysis.
smiles,measurement,setting,value
"O=C(CSc1ccc(Br)cc1)Nc1cn(CCc2ccccc2)nc1C(=O)[O-].[Na+] [sodium salt, 4-(2-((4-bromophenyl)thio)acetamido)-1-phenethyl-1H-pyrazole-3-carboxylic Acid Sodium Salt]",solubility at 24 h,"[1]; shaken 24 h at 25° C., read-out: Aqueous solubility @ 25° C.",2300 µg/mL
same,solubility at 24 h,[1]; shaken 24 h at 50° C.,2400 µg/mL
same,solubility at 24 h,"FaSSIF/FeSSIF solubility; FaSSIF, read-out: FaSSIF solubility @ 37° C.",4000 µg/mL
same,solubility at 24 h,"FaSSIF/FeSSIF solubility; FeSSIF, read-out: FeSSIF solubility @ 37° C.",3800 µg/mL
same,Observations post stability (pH 1 for 4 h),pH1 stability,No visual change
same,XRPD post stability (pH 1 for 4 h),pH1 stability,Partially crystalline: change in crystalline
same,Chemical purity post stability (pH 1 for 4 h),pH1 stability; HPLC,>99.9% (by peak area)
same,1H NMR post stability (pH 1 for 4 h),pH1 stability; cell continues: salt form is no longer present,"No chemical shifts, indicating that salt form"
same,"Solubility assessment (dissolution in deionized water), salt from DIPE",[2]; salt prepared from DIPE,Complete
same,"Solubility assessment (dissolution in deionized water), salt From Ethanol",[2]; salt prepared from ethanol,Complete
same,Observation post stability (40° C./75% RH),[3],No visible change
same,XRPD post stability (40° C./75% RH),[3],Crystalline - no change in form
same,Chemical purity post stability (40° C./75% RH),[3]; HPLC,>99.9% (by peak area)
same,"DVS mass increase between 0-90% RH, first cycle","[4]; 0-90% RH, first cycle",Ca. 11.7% mass increase between 0-90% RH on
same,XRPD post DVS,[4]; after double cycle 0-90% RH,Crystalline - no change in form
same,pH of rm temp sat'd sol'n,pH of saturated solution,10.31
